Data reported in ChEMBL document CHEMBL4350997, “The synthesis and anticancer activity of 2-styrylquinoline derivatives. A p53 independent mechanism of action” (Eur J Med Chem, 2019).
In brackets after ≈: the same amount, converted by molar mass.

Assays:
[1] = test system: HCT-116; test: Cytotoxicity against human HCT116 cells deficient in p53 incubated for 72 hrs by MTS assay; details: HCT-116, 72 h
[2] = test system: HCT-116; test: Cytotoxicity against human HCT116 cells expressing wild type p53 incubated for 72 hrs by MTS assay; details: HCT-116, 72 h
[3] = test system: NHDF; test: Cytotoxicity against human NHDF cells incubated for 72 hrs by MTS assay; assay type: cell-based
[4] = test system: PANC-1; test: Cytotoxicity against human PANC1 cells harboring mutant TP53 gene incubated for 72 hrs by MTS assay; assay type: functional, cell-based; details: PANC-1, 72 h
[5] = test system: U-251; test: Cytotoxicity against human U251 cells harboring mutant TP53 gene incubated for 72 hrs by MTS assay; assay type: functional, cell-based; details: U-251, 72 h
[6] = test system: HCT-116; test: Anticancer activity against human HCT116 cells deficient in p53 assessed as inhibition of cell proliferation; assay type: functional, cell-based
[7] = test system: HCT-116; test: Anticancer activity against human HCT116 cells assessed as inhibition of cell proliferation
[8] = test system: HepG2; test: Anticancer activity against human HepG2 cells assessed as inhibition of cell proliferation; assay type: functional, cell-based
[9] = test system: MCF7; test: Anticancer activity against human MCF7 cells assessed as inhibition of cell proliferation; assay type: functional, cell-based
[10] = test system: ASPC1; test: Cytotoxicity against human AsPC1 cells deficit of P53 gene incubated for 72 hrs by MTS assay; assay type: functional, cell-based; details: ASPC1, 72 h

Row | SMILES | IC50 [1] | IC50 [2] | IC50 [3] | also measured
1 | Oc1cccc2ccc(/C=C/c3c(F)cccc3Cl)nc12 | > 25 µM | > 25 µM | – | –
2 | COc1ccc(/C=C/c2nc(NCCCN(C)C)c3ccccc3n2)cc1 | 26.3 µM | 18.6 µM | 12.3 µM | IC50 ([4]; read-out: IC50): > 25 µM; IC50 [5]: 18.8 µM
3 | Oc1cccc2ccc(/C=C/c3ccccc3F)nc12 | – | – | – | IC50 [6]: 8.4 µM
4 | CC(=O)Oc1ccccc1/C=C/c1ccc2cccc(O)c2n1 | 13.5 µM | 7.32 µM | 6.92 µM | IC50 [7]: 7.3 µM
5 | CN(C)c1ccc(/C=C/c2cc(-c3nnc(N)s3)c3cc(Br)ccc3n2)cc1 | – | – | – | IC50 [8]: 9 µg/mL (≈ 19.9 µM)
6 | COc1cccc2c(Nc3ccc(/C(C)=N/O)cc3)cc(/C=C/c3ccccc3)nc12 | – | – | – | IC50 [9]: > 4 µg/mL
7 | Oc1ccc(/C=C/c2ccc3cccc(O)c3n2)cc1 | 16.6 µM | 13.5 µM | > 25 µM | –
8 | COc1cccc2c1C(=O)c1c(O)c3c(c(O)c1C2=O)C[C@@](O)(C(=O)CO)C[C@@H]3O[C@H]1C[C@H](N)[C@H](O)[C@H](C)O1 [DOXORUBICIN] | 0.38 µM | 0.34 µM | 0.14 µM | IC50 [10]: 0.86 µM; IC50 [4]: 0.73 µM; IC50 [5]: 0.05 µM
9 | O=c1[nH]cc(F)c(=O)[nH]1 [FLUOROURACIL] | 4.69 µM | 4.42 µM | > 25 µM | –
